Assay results published in publication PMC9412861, “Understanding the pH Dependence of Supersaturation State—A Case Study of Telmisartan” (Pharmaceutics, 2022).
Where two headings read alike, the source gives them in different places.

Columns and labels:
Assay type in all cases: physicochemical
[1] = 1H NMR/pH titration (pKa determination); details: 5 v/v % D2O-95 v/v % H2O, NMR-pH titration, 25 °C, I = 0.15 M
Experimental: All NMR measurements were performed on a Varian 600 MHz spectrometer (Varian Inc., Palo Alto, CA, USA) with a dual 5 mm inverse-detection gradient probehead at 25 °C, constant ionic strength (I = 0.15 M) and using 5 v/v % D2O–95 v/v % H2O as solvent. The spectra were referenced to internal DSS (sodium 3-(trimethylsilyl)-1-propanesulfonate) as chemical shift reference. The pH of the samples (600 μL)were adjusted with concentrated HCl and NaOH and determined by in situ internal indicator molecules optimized for NMR [39, 40]. The concentration of telmisartan was below 1 mM during in the titration solution, due to its poor solubility, but all the peaks were still clearly visible. The water resonance was diminished by a double pulse field gradient spin echo sequence (number of transients = 16, number of points = 16,384, acquisition time = 3.33 s, relaxation delay = 1.5 s).
In order to obtain the acid dissociation constants from the chemical shifts–pH profiles, the software Origin Pro 8 (OriginLab Corp., Northampton, MA, USA) was used to perform non-linear regression with the following function:(2) δobs(pH)=δX^−+∑i=1nδHiX^i−1×10^logβi−i×pH/1+∑i=1n10^logβi−i×pH where δX^- is the chemical shift of the unprotonated ligand (X^−), δHiX^i-1 values stand for the chemical shifts of successively protonated species of X^−, n is the maximum number of protons that can bind to the unprotonated ligand, β is the cumulative macroconstant. The standard deviations of logβ values from the regression analyses were used to calculate the Gaussian propagation of uncertainty for the other equilibrium constants.

[2] = XRD characterization of solid phase isolated from solubility suspension; details: solid phase from solubility measurement, Prisma HT buffer
Experimental: X-ray powder diffraction (XRD) measurements were performed by X’pert Pro MPD X-ray diffractometer (PANalytical B.v., Armelo, The Netherlands).

[3] = Kinetic solubility measurement (µDISS profiler)
Experimental: The kinetic solubility measurements of TEL were determined using µDISS™ profiler (Pion Inc., Billerica, MA, USA). The method was described earlier by Kadar et al..

pKa ([1]; read-out: pKa1 ± SD (Carboxyl Group)): 3.21 ± 0.14 | pKa ([1]; read-out: pKa2 ± SD (Middle Benzimidazole Ring)): 4.28 ± 0.07 | pKa ([1]; read-out: pKa3 ± SD (Terminal Benzimidazole Ring)): 6.08 ± 0.04 | XRD Characterization ([2]; pH 1.60): Crystalline | XRD Characterization ([2]; pH 2.15): Crystalline | XRD Characterization ([2]; pH 2.50): Crystalline | XRD Characterization ([2]; pH 3.08): Crystalline | XRD Characterization ([2]; pH 3.82): Crystalline | XRD Characterization ([2]; pH 6.50): Crystalline | XRD Characterization ([2]; pH 7.88): Crystalline | XRD Characterization ([2]; pH 9.40): amorphous background | XRD Characterization ([2]; pH 9.79): amorphous background | XRD Characterization ([2]; pH 11.74): Amorphous | pH range of minimal kinetic solubility ([3]; Prisma HT buffer, 37 °C): 3–6 | pH range in which a supersaturated solution is formed ([3]; based on kinetic solubility results): 3–8 | difference between thermodynamic and kinetic solubility ([3]; more acidic pHs (below pH 3)): no significant difference | difference between thermodynamic and kinetic solubility ([3]; pH = 3 to pH = 8): near two-magnitude difference
Structure (SMILES): CCCc1nc2c(C)cc(-c3nc4ccccc4n3C)cc2n1Cc1ccc(-c2ccccc2C(=O)O)cc1 [Telmisartan, telmisartan]
